The text below walks through data of patent US4642364A, “Unsaturated eicosanoic acids” (Hoffmann-La Roche Inc., priority 1986, dated 1987).

Molecules are shown by their SMILES.

The target in assay [1] is T1, Δ^12-lipoxygenase (Human Platelet) (Homo sapiens, UniProt P18054).
T1 construct: using human platelets as the enzyme source; from tissue; host or cells: human platelets (washed, lysed by freezing and thawing; 100,000×g supernatant, 50% ammonium sulfate precipitate)
T1 sequence (P18054 1-663): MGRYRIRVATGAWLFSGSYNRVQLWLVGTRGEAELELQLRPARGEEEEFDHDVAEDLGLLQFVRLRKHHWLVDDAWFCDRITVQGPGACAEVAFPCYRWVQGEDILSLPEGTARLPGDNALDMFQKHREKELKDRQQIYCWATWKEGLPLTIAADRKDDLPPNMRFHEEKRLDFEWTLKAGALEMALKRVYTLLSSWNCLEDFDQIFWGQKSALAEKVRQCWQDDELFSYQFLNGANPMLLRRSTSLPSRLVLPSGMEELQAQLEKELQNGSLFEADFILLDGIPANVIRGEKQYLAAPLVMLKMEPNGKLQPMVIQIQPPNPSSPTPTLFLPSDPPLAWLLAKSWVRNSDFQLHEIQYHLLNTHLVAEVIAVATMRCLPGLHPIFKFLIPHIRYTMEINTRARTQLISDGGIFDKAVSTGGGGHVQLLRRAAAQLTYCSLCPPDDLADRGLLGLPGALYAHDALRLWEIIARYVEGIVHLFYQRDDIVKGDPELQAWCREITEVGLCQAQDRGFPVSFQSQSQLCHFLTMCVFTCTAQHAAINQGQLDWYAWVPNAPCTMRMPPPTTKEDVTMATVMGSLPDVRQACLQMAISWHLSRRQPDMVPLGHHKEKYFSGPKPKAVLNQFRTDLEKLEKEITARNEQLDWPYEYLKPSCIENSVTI
Description: Δ^12-lipoxygenase assay (conversion of 14C-arachidonic acid to 12-HETE, human platelet enzyme). It counts as biochemical. The following applies: 3-4 μM arachidonic acid. As to the method: Δ^12 -lipoxygenase activity was measured by following the conversion of ^14 C-arachidonic acid (AA) to ^14 C-12-hydroxy-5,8,10,14-eicosatetraenoic acid (12-HETE) using human platelets as the enzyme source. Washed human platelets from approximately 2000 ml of blood were suspended in 50 ml of phosphate buffered saline (PBS) and then lysed by freezing and thawing (3 times). The platelet lysate was homogenized using a glass-teflon homogenizer and then particulate material was sedimented by centifugation at 100,000×g for 1 hr and the sediment was discarded. The supernatant was made 50% by weight saturated with respect to (NH4)2 SO4 by adding solid ammonium sulfate. The resultant suspension was allowed to stand at 0° overnight. The precipitate was collected by centrifugation and was dissolved in approximately 25 ml of PBS. This solution was the enzyme solution utilized to catalyze the conversion of AA to 12 HETE.
In order to test the compounds, separate incubation tubes for each of the compounds and for concentrations of these compounds were prepared in an ice bath. These tubes each contained 140 μl of PBS containing 1.78 mM glutathione, 10 μl of test drug in ethanol, 50 μl of platelet supernatant, and 50 μl of ^14 C-AA. […] Incubation tubes were prepared containing only buffer ethanol and ^14 c-AA were included as substrate controls. The final concentration of AA added as its ammonium salt in PBS, in each of the incubation tubes 3-4 μM. Sufficient enzyme solution prepared as above was added so that, under the conditions of the assay, approximately 80-90% by weight of the ^14 C-AA was converted to 12-HETE, as determined by prior controls. The tubes were incubated at 37° for 2 min, the reaction was stopped by the addition, while mixing on a mixer, of 2 ml of diethyl ether and 50 μl of 1M citric acid. The ether in the presence of citric acid extracted 12-HETE and AA from enzyme in the reaction medium in each of the samples. The ether extract was evaporated to dryness under nitrogen and then the residue was dissolved in 50 μl of chloroform:methanol (2:1 parts by volume). The dissolved residue containing 12-HETE and AA was applied, as rapidly as possible, to a glass fiber sheet impregnated with silica gel and then the chromatogram was developed using isooctane:methylethylketone:acetic acid (100:9:1 parts by volume) as solvent. Radioactive products and unconverted ^14 C-AA were located using a thin-layer chromatography scanner. The appropriate regions of the chromatogram were cut out, then the radioactivity quantitated using a liquid scintillation counter. The amount of ^14 C-AA converted to product is used as a measure of Δ^12 -lipoxygenase activity.
The mean percent inhibition was calculated by multiplying 100 times the following fraction: [formula] at each concentration of the various test drugs was calculated.

For assay [2], the system named is SRS-A synthesis (Rat Peritoneal Cells). The following applies: statement on standard; cited from earlier work.
For assay [3], the target named is T1, Δ^12-lipoxygenase (Human Platelet). The following applies: statement on standard; cited from earlier work.
Assay [4] deals with T2, Prostaglandin endoperoxide synthase (Ovis aries, UniProt P05979).
T2 construct: sheep seminal vesicular gland microsomes (SSVM) as the enzyme source; from tissue; host or cells: sheep seminal vesicular gland microsomes, acetone powder
T2 sequence (P05979 25-600): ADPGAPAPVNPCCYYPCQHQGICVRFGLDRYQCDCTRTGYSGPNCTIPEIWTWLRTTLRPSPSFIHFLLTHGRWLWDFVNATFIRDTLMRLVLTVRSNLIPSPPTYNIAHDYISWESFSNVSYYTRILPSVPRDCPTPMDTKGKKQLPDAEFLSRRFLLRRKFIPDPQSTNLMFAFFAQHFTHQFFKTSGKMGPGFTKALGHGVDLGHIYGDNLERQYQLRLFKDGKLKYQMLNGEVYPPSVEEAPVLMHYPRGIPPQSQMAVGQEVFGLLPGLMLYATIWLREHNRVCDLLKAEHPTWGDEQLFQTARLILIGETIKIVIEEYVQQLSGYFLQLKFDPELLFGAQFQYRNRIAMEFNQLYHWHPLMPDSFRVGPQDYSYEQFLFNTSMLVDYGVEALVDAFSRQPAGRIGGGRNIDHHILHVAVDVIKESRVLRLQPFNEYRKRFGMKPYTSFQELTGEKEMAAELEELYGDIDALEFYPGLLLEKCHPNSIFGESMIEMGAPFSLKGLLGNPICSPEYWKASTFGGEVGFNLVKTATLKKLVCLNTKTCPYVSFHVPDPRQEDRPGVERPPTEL
The following applies: statement on standard; cited from earlier work.

For `CCCCC/C=C\CCCCC#CCC#CCCCC(=O)O` [Compound 6, (Z)-14-eicosen-5,8-diynoic acid], the half-inhibitory concentration (IC50) (as a rule, the point on the concentration scale where inhibition reaches its midpoint) in assay [1] is around 100 µM.
In assay [1], `CCCCCC#CCC#CCCCCCCCC(=O)O` [9,12-Octadecadiynoic Acid, reference compound] showed a 50% inhibitory concentration (IC50) of at least 100 µM. Besides, the “inhibition of SRS-A synthesis (in words)” value in assay [2] is “potent standard inhibitor of SRS-A synthesis”. Besides, the “inhibition of Δ^12-lipoxygenase (in words)” value in assay [3] is reported as “not being an inhibitor of Δ^12 lipoxygenase”. Moreover, the “inhibition of prostaglandin endoperoxide synthase (in words)” value in assay [4] is listed as “potent standard inhibitor”.
`CCCCCCCC/C=C\CC#CCC#CCCCC(=O)O` [Compound 5, (Z,Z)-11-eicosen-5,8-diynoic acid] showed a 50% inhibitory concentration (IC50) in assay [1] of 13 µM.
In assay [1], `CCCCC/C=C\C/C=C\CC#CCC#CCCCC(=O)O` [Compound 3, (Z,Z)-11,14-eicosadien-5,8-diynoic acid] had an IC50 of 10 to 100 µM.
